# From PubChem BioAssay AID330 (DTP/NCI, 2004)
# “And” between values parts separate entries of the source, which are not always exact repeats. Identical values can stand only once. Toxic doses and inconclusive results are not listed.
# System: P388 leukemia ip, CD2F1 mice, survival T/C
# Test: NCI In Vivo Anticancer Drug Screen. Data for tumor model P388 Leukemia (intraperitoneal) in CD2F1 (CDF1) mice
# Conditions: endpoint: median survival time, higher = longer survival
# Method in brief: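 Mice carrying the transplanted tumor received test compound or vehicle. Survival was recorded in each group, and the value is the treated-group measurement divided by that of the vehicle-treated control group.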
# [1] = dose: 100.0 mg/kg/injection, schedule: Q04DX002 (ip), vehicle: saline with Tween-80
# [2] = dose: 200.0 mg/kg/injection, schedule: Q04DX002 (ip), vehicle: saline with Tween-80
# [3] = dose: 400.0 mg/kg/injection, schedule: Q04DX002 (ip), vehicle: saline with Tween-80
# [4] = dose: 50.0 mg/kg/injection, schedule: Q01DX009 (ip), vehicle: saline with Tween-80
# [5] = dose: 100.0 mg/kg/injection, schedule: Q01DX009 (ip), vehicle: saline with Tween-80
# [6] = dose: 200.0 mg/kg/injection, schedule: Q01DX009 (ip), vehicle: saline with Tween-80
# [7] = dose: 60.0 mg/kg/injection, schedule: Q01DX005 (ip), vehicle: Klucel (hydroxypropylcellulose) (HPC)
# [8] = dose: 120.0 mg/kg/injection, schedule: Q01DX005 (ip), vehicle: Klucel (hydroxypropylcellulose) (HPC)
# [9] = dose: 240.0 mg/kg/injection, schedule: Q01DX005 (ip), vehicle: Klucel (hydroxypropylcellulose) (HPC)
# [10] = dose: 100.0 mg/kg/injection, schedule: Q04DX003 (ip), vehicle: Klucel (hydroxypropylcellulose) (HPC)
# [11] = dose: 200.0 mg/kg/injection, schedule: Q04DX003 (ip), vehicle: Klucel (hydroxypropylcellulose) (HPC)
# [12] = dose: 400.0 mg/kg/injection, schedule: Q04DX003 (ip), vehicle: Klucel (hydroxypropylcellulose) (HPC)
# [13] = dose: 50.0 mg/kg/injection, schedule: Q01DX005 (ip), vehicle: Klucel (hydroxypropylcellulose) (HPC)
# [14] = dose: 100.0 mg/kg/injection, schedule: Q01DX005 (ip), vehicle: Klucel (hydroxypropylcellulose) (HPC)
# [15] = dose: 200.0 mg/kg/injection, schedule: Q01DX005 (ip), vehicle: Klucel (hydroxypropylcellulose) (HPC)
# [16] = dose: 60.0 mg/kg/injection, schedule: Q01DX005 (ip), vehicle: saline with Tween-80
# [17] = dose: 25.0 mg/kg/injection, schedule: Q01DX009 (ip), vehicle: Klucel (hydroxypropylcellulose) (HPC)
# [18] = dose: 50.0 mg/kg/injection, schedule: Q01DX009 (ip), vehicle: Klucel (hydroxypropylcellulose) (HPC)
# [19] = dose: 100.0 mg/kg/injection, schedule: Q01DX009 (ip), vehicle: Klucel (hydroxypropylcellulose) (HPC)
# [20] = dose: 200.0 mg/kg/injection, schedule: Q01DX009 (ip), vehicle: Klucel (hydroxypropylcellulose) (HPC)
# [21] = dose: 25.0 mg/kg/injection, schedule: Q01DX009 (ip), vehicle: saline with Tween-80
# [22] = dose: 12.5 mg/kg/injection, schedule: Q01DX009 (ip), vehicle: saline with Tween-80
smiles,measurement,setting,value
COC(=O)c1nn(-c2ccccc2)c2nc3ccccc3c-2c1C(=O)OC,T/C,[1],108 % of control
same,T/C,[2],108 % of control
same,T/C,[3],97 % of control
O=C(NCCNC(=S)Nc1ccccc1)C(=O)NCCNC(=S)Nc1ccccc1,T/C,"dose: 50.0 mg/kg/injection, schedule: Q01DX001 (ip), vehicle: Klucel (hydroxypropylcellulose) (HPC)",91 % of control
same,T/C,"dose: 100.0 mg/kg/injection, schedule: Q01DX001 (ip), vehicle: Klucel (hydroxypropylcellulose) (HPC)",91 % of control
same,T/C,"dose: 200.0 mg/kg/injection, schedule: Q01DX001 (ip), vehicle: Klucel (hydroxypropylcellulose) (HPC)",91 % of control
CC(=O)N1c2ccccc2Sc2ccc3ccccc3c21,T/C,[4],93 % of control
same,T/C,[5],100 % of control
same,T/C,[6],99 % of control
CC1=C2C3OC(=O)C(C)C3CCC2(C)C=C(Br)C1=O (stereo not drawn),T/C,[7],106 % of control
same,T/C,[1],101 % of control
same,T/C,[8],98 % of control
same,T/C,[2],97 % of control
same,T/C,[9],104 % of control
same,T/C,[3],97 % of control
C/C(=C(/O)c1ccc(Cl)cc1)c1nc2cc(Cl)cc([N+](=O)[O-])c2[nH]c1=O,T/C,[7],100 % of control
same,T/C,[8],107 % of control
same,T/C,[9],111 % of control
CN(C)C1=C(c2ccccc2)C(=O)C(c2ccccc2)=C1c1ccccc1,T/C,[10],106 % of control
same,T/C,[11],109 % of control
same,T/C,[12],109 % of control
CCOC(=O)/C(C#N)=C1/SC=C(N)N1c1ccccc1,T/C,[13],98 % of control
same,T/C,[14],94 % of control
same,T/C,[15],91 % of control
O=C(On1nnc2ccccc2c1=O)c1ccccc1,T/C,"dose: 12.5 mg/kg/injection, schedule: Q01DX009 (ip), vehicle: distilled water + Tween-80",100 % of control
same,T/C,"dose: 25.0 mg/kg/injection, schedule: Q01DX009 (ip), vehicle: distilled water + Tween-80",102 % of control
same,T/C,"dose: 50.0 mg/kg/injection, schedule: Q01DX009 (ip), vehicle: distilled water + Tween-80",94 % of control
same,T/C,"dose: 100.0 mg/kg/injection, schedule: Q01DX009 (ip), vehicle: distilled water + Tween-80",106 % of control
same,T/C,"dose: 200.0 mg/kg/injection, schedule: Q01DX009 (ip), vehicle: distilled water + Tween-80",103 % of control
O=C(Nc1ccc(Cl)c(Cl)c1)Nc1ccc(Oc2ccc(Cl)cc2Cl)cc1S(=O)(=O)O,T/C,[10],91 % of control
same,T/C,[11],100 % of control
same,T/C,[12],95 % of control
O=C1Cc2ccccc2C(O)=C1c1cnccn1,T/C,"dose: 15.0 mg/kg/injection, schedule: Q01DX005 (ip), vehicle: saline with Tween-80",93 % of control
same,T/C,"dose: 30.0 mg/kg/injection, schedule: Q01DX005 (ip), vehicle: saline with Tween-80",99 % of control
same,T/C,[16],101 % of control and 102 % of control
C=C(CN1CCOCC1)C(=O)c1ccccc1,T/C,"dose: 1.89 mg/kg/injection, schedule: Q01DX005 (ip), vehicle: saline",105 % of control
same,T/C,"dose: 3.75 mg/kg/injection, schedule: Q01DX005 (ip), vehicle: saline",112 % of control
same,T/C,"dose: 7.5 mg/kg/injection, schedule: Q01DX005 (ip), vehicle: saline",100 % of control and 105 % of control
O=S1(=O)CCN(C2CCCC2)CC1,T/C,[17],94 % of control
same,T/C,[18],93 % of control and 95 % of control
same,T/C,[19],92 % of control and 95 % of control
same,T/C,[20],99 % of control and 94 % of control
CCC(=O)Nc1ccc(C(=O)C(C)O[N+](=O)[O-])cc1 (stereo not drawn),T/C,[21],98 % of control
same,T/C,[4],99 % of control
same,T/C,[5],100 % of control
O[Si](c1ccccc1)(c1ccccc1)c1ccccc1.O[Si](c1ccccc1)(c1ccccc1)c1ccccc1.O[Si](c1ccccc1)(c1ccccc1)c1ccccc1.[O]=[V],T/C,[13],92 % of control
same,T/C,[14],90 % of control
same,T/C,[15],92 % of control
CC1C/C(=C2/NC3CCCCC3NC2=O)C(=O)O1 (stereo not drawn),T/C,"dose: 6.25 mg/kg/injection, schedule: Q01DX009 (ip), vehicle: saline with Tween-80",100 % of control
same,T/C,[22],95 % of control
same,T/C,[21],92 % of control
Cc1cc(=O)oc2c(CNC(C(=O)O)C(C)C)c(O)ccc12 (stereo not drawn),T/C,[7],91 % of control
same,T/C,[8],91 % of control
c1ccc(-c2ccccc2NC2=NCCO2)cc1,T/C,[22],104 % of control
same,T/C,[21],104 % of control
same,T/C,[4],95 % of control
Cc1ccc(N/N=C2\CC(=O)NC(=O)N2)cc1C,T/C,[4],104 % of control
same,T/C,[5],104 % of control
same,T/C,[6],99 % of control
O=C(c1ccncc1)N(CO)N(Cn1c(=O)sc2ccccc21)Cn1c(=O)sc2ccccc21,T/C,"dose: 6.25 mg/kg/injection, schedule: Q01DX009 (ip), vehicle: Klucel (hydroxypropylcellulose) (HPC)",101 % of control
same,T/C,"dose: 12.5 mg/kg/injection, schedule: Q01DX009 (ip), vehicle: Klucel (hydroxypropylcellulose) (HPC)",94 % of control
same,T/C,[17],92 % of control
COc1ccccc1OCC(O)CNc1ccc(Cl)cc1C(=O)c1ccccc1 (stereo not drawn),T/C,[16],103 % of control
same,T/C,"dose: 120.0 mg/kg/injection, schedule: Q01DX005 (ip), vehicle: saline with Tween-80",105 % of control
same,T/C,"dose: 240.0 mg/kg/injection, schedule: Q01DX005 (ip), vehicle: saline with Tween-80",94 % of control
O=C(O)CCc1nc(-c2ccccc2)nc2c1CCc1ccccc1-2,T/C,"dose: 100.0 mg/kg/injection, schedule: Q04DX002 (ip), vehicle: Klucel (hydroxypropylcellulose) (HPC)",92 % of control
same,T/C,"dose: 200.0 mg/kg/injection, schedule: Q04DX002 (ip), vehicle: Klucel (hydroxypropylcellulose) (HPC)",97 % of control
same,T/C,"dose: 400.0 mg/kg/injection, schedule: Q04DX002 (ip), vehicle: Klucel (hydroxypropylcellulose) (HPC)",98 % of control
CCOC(=O)C(Cc1c[nH]c2ccccc12)NC(=O)[C@@]1(O)[C@H](O)[C@]2(CC)C=CCN3CC[C@@]4(c5cc([C@@]6(C(=O)OC)C[C@@H]7CN(CCc8c6[nH]c6ccccc86)C[C@](O)(CC)C7)c(OC)cc5N(C)[C@@H]14)[C@@H]32 (stereo partly drawn),T/C,"dose: 1.0 mg/kg/injection, schedule: Q01DX001 (ip), vehicle: saline",108 % of control and 109 % of control
same,T/C,"dose: 2.0 mg/kg/injection, schedule: Q01DX001 (ip), vehicle: saline",108 % of control and 112 % of control
same,T/C,"dose: 4.0 mg/kg/injection, schedule: Q01DX001 (ip), vehicle: saline",109 % of control and 116 % of control
same,T/C,"dose: 8.0 mg/kg/injection, schedule: Q01DX001 (ip), vehicle: saline",115 % of control and 118 % of control
same,T/C,"dose: 32.0 mg/kg/injection, schedule: Q01DX001 (ip), vehicle: saline",153 % of control and 157 % of control
CCCCCC(=O)Nc1ncc([N+](=O)[O-])s1,T/C,[18],116 % of control
same,T/C,[19],113 % of control
same,T/C,[20],98 % of control
O=[N+]([O-])c1ccc(N2CC2)c2c1no[n+]2[O-],T/C,"dose: 7.5 mg/kg/injection, schedule: Q04DX003 (ip), vehicle: saline with Tween-80",101 % of control
same,T/C,"dose: 15.0 mg/kg/injection, schedule: Q04DX003 (ip), vehicle: saline with Tween-80",99 % of control
same,T/C,"dose: 30.0 mg/kg/injection, schedule: Q04DX003 (ip), vehicle: saline with Tween-80",100 % of control
same,T/C,"dose: 60.0 mg/kg/injection, schedule: Q04DX003 (ip), vehicle: saline with Tween-80",100 % of control
O=C(Cn1cnc2c(=S)nc[nH]c21)Oc1ccc([N+](=O)[O-])cc1,T/C,[22],109 % of control
same,T/C,[21],100 % of control
same,T/C,"dose: 25.0 mg/kg/injection, schedule: Q04DX003 (ip), vehicle: saline with Tween-80",91 % of control
same,T/C,[4],100 % of control
same,T/C,"dose: 50.0 mg/kg/injection, schedule: Q04DX003 (ip), vehicle: saline with Tween-80",91 % of control
O=S1(=O)OCCCO1,T/C,"dose: 12.5 mg/kg/injection, schedule: Q01DX005 (ip), vehicle: saline",109 % of control
same,T/C,"dose: 25.0 mg/kg/injection, schedule: Q01DX005 (ip), vehicle: saline",98 % of control
same,T/C,"dose: 50.0 mg/kg/injection, schedule: Q01DX005 (ip), vehicle: saline",124 % of control
